Source: US20230091047A1 (priority 2019, published 2023)
Read-outs that look alike come from different tables or passages of the source.

Legend:
[1] = in vitro; assay type: cell-based; conditions: human, HepG2 or HepG2.117 cells, mean value
How it was run: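 Luminescent ATP quantitation served as the viability endpoint following a 3- or 4-day incubation with test compounds.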

[2] = test system: HBV (HepG2.117 cell line, inducibly HBV producing); test: Anti-HBV activity: intracellular HBV DNA by real-time PCR in HepG2.117 cells after 3 days of treatment; assay type: cell-based, hepatitis B virus
How it was run: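 Tet-off HepG2.117; HBV replication induced (no doxycycline); serial compound dilutions, 3 d; intracellular HBV DNA by real-time PCR, HBV-specific primers/probe.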

[3] = ATPlite, 3-days incubation (not marked with *)
[4] = Hepatitis B virus, HepG2.117, 72 h, HepG2.117 cells, intracellular HBV DNA by real-time PCR, 3 days of treatment, mean value; read-out: EC50 (μM, mean value)
[5] = 3-days incubation (unmarked values), ATPlite
[6] = Hepatitis B virus, HepG2.117, 72 h, HepG2.117 cells, 3 days of treatment, intracellular HBV DNA by real-time PCR; mean value; read-out: EC50 (μM, mean value)

Row | Compound | CC50 at 3 days [1, 3] | EC50 [2, 4] | CC50 at 3 days [1, 5] | EC50 [2, 6] | further results
1 | CNC(=O)c1ccc(-n2c(N[C@H](C)c3ccc(F)cc3F)nc3c(c2=O)C[C@@H](C)N(C(=O)c2ccc(Cl)c(Cl)c2)C3)cc1 (single isomer, unassigned) [Compound C689a] | 16.7 µM | 0.2 µM | – | – | –
2 | CNC(=O)c1ccc(-n2c(N[C@H](C)c3ccc4c(c3)OCO4)nc3c(c2=O)C[C@@H](C)N(C(=O)c2ccc(Cl)c(Cl)c2)C3)cc1 (single isomer, unassigned) [Compound C414a] | > 50 µM | 0.29 µM | – | – | –
3 | CC(C)Nc1nc2c(c(=O)n1-c1ccc(N3CC[C@H](O)C3)cc1)C[C@@H](C)N(C(=O)c1ccc(Cl)c(Cl)c1)C2 [Compound C200, (6R)-7-(3,4-dichlorobenzoyl)-3-{4-[(3S)-3-hydroxypyrrolidin-1-yl]phenyl}-6-methyl-2-[(propan-2-yl)amino]-5,6,7,8-tetrahydropyrido[3,4-d]pyrimidin-4(3H)-one] | – | – | 35.4 µM | 0.2 µM | –
4 | CNC(=O)c1ccc(-n2c(NC(C)C)nc3c(c2=O)C[C@@H](C)N(C(=O)c2ccc(OC(F)(F)F)c(Cl)c2)C3)cc1 [Compound C525] | > 50 µM | 0.15 µM | – | – | –
5 | COc1ccc(CNc2nc3c(c(=O)n2-c2ccc(Br)cc2)CCN(C(=O)c2ccc(Cl)c(Cl)c2)C3)cc1 [Compound C125, 3-(4-bromophenyl)-7-(3,4-dichlorobenzoyl)-2-{[(4-methoxyphenyl)methyl]amino}-5,6,7,8-tetrahydropyrido[3,4-d]pyrimidin-4(3H)-one] | – | – | > 50 µM | 1.64 µM | –
6 | CNC(=O)c1ccc(-n2c(NCc3ccccc3-n3ccnc3)nc3c(c2=O)C[C@@H](C)N(C(=O)c2ccc(Cl)c(Cl)c2)C3)cc1 [Compound C485] | 24.9 µM | 11.9 µM | – | – | –
7 | CNC(=O)c1ccc(-n2c(NCc3nnn(C)c3C(F)F)nc3c(c2=O)C[C@@H](C)N(C(=O)c2ccc(Cl)c(Cl)c2)C3)cc1 [Compound C552] | > 50 µM | > 25 µM | – | – | –
8 | COc1ccc(CNc2nc3c(c(=O)[nH]2)CCN(C(=O)c2ccc(Cl)cc2)C3)cc1 [Compound C115, 7-(4-chlorobenzoyl)-2-{[(4-methoxyphenyl)methyl]amino}-5,6,7,8-tetrahydropyrido[3,4-d]pyrimidin-4(3H)-one] | – | – | 42.8 µM | 37.1 µM | –
9 | CNC(=O)c1ccc(-n2c(N[C@@H](c3ccccc3)C3CC3)nc3c(c2=O)C[C@@H](C)N(C(=O)c2ccc(Cl)c(Cl)c2)C3)cc1 (single isomer, unassigned) [Compound C342, 4-[(6R)-2-{[(*R)-cycopropyl(phenyl)methyl]amino}-7-(3,4-dichlorobenzoyl)-6-methyl-4-oxo-5,6,7,8-tetrahydropyrido[3,4-d]pyrimidin-3(4H)-yl]-N-methylbenzamide] | – | – | 16 µM | 0.37 µM | –
10 | CNC(=O)c1ccc(-n2c(N[C@H](CCO)C3CC3)nc3c(c2=O)C[C@@H](C)N(C(=O)c2ccc(Cl)c(Cl)c2)C3)cc1 (single isomer, unassigned) [Compound C283, 4-[(6R)-2-{[(1*R)-1-cyclopropyl-3-hydroxypropyl]amino}-7-(3,4-dichlorobenzoyl)-6-methyl-4-oxo-5,6,7,8-tetrahydropyrido[3,4-d]pyrimidin-3(4H)-yl]-N-methylbenzamide] | – | – | > 50 µM | 5.52 µM | –
11 | CNC(=O)c1cc(-n2c(N[C@@H](C)c3ccc(OC(F)(F)F)cc3)nc3c(c2=O)C[C@@H](C)N(C(=O)c2ccc(Cl)c(Cl)c2)C3)nn1C [Compound C622] | > 50 µM | 0.07 µM | – | – | –
12 | COc1ccc(CNc2nc3c(c(=O)n2-c2ccncc2)CCN(C(=O)c2ccc(Cl)c(Cl)c2)C3)cc1 [Compound C123, 7-(3,4-dichlorobenzoyl)-2-{[(4-methoxyphenyl)methyl]amino}-3-(pyridin-4-yl)-5,6,7,8-tetrahydropyrido[3,4-d]pyrimidin-4(3H)-one] | – | – | 24.4 µM | 1.23 µM | –
13 | CNC(=O)c1ccc(-n2c(NC(C)C)nc3c(c2=O)C[C@@H](C)N(C(=O)c2cc(Cl)c(Br)cc2F)C3)cc1 [Compound C577] | > 50 µM | 0.17 µM | – | – | –
14 | CC(C)Nc1nc2c(c(=O)n1-c1ccc(Br)cc1)C[C@@H](C)N(C(=O)c1ccc(Cl)c(Cl)c1)C2 [Compound C183, (6R)-3-(4-bromophenyl)-7-(3,4-dichlorobenzoyl)-6-methyl-2-[(propan-2-yl)amino]-5,6,7,8-tetrahydropyrido[3,4-d]pyrimidin-4(3H)-one] | – | – | > 50 µM | 0.21 µM | –
15 | CC(C)Nc1nc2c(c(=O)n1-c1ccc(-n3cncn3)cc1)C[C@@H](C)N(C(=O)c1ccc(Cl)c(Cl)c1)C2 [Compound C611] | > 50 µM | 0.17 µM | – | – | –
16 | COc1ccccc1-n1c(NC2CCc3ccccc32)nc2c(c1=O)CCN(C(=O)c1ccc(Cl)c(Cl)c1)C2 (stereo not drawn) [Compound C55, 7-(3,4-dichlorobenzoyl)-2-[(2,3-dihydro-1H-inden-1-yl)amino]-3-(2-methoxyphenyl)-5,6,7,8-tetrahydropyrido[3,4-d]pyrimidin-4(3H)-one] | – | – | 23.6 µM | 22.1 µM | –
17 | CC(C)NC(=O)c1ncc(-n2c(NC(C)C)nc3c(c2=O)C[C@@H](C)N(C(=O)c2ccc(Cl)c(C(F)(F)F)c2)C3)n1C [Compound C703] | – | – | – | 0.09 µM | CC50 at 3 days ([1]; 3-days incubation (unmarked values), ATPlite viability): > 50 µM
18 | CNC(=O)c1ccc([C@@H](C)Nc2nc3c(c(=O)n2-c2ccc(C(=O)NC)cc2)C[C@@H](C)N(C(=O)c2ccc(Cl)c(Cl)c2)C3)cc1 (single isomer, unassigned) [Compound C530a] | > 50 µM | > 7.4 µM | – | – | –
19 | CNC(=O)c1ccc(-n2c(N[C@H](C)c3ccc(OC(F)F)cc3)nc3c(c2=O)C[C@@H](C)N(C(=O)c2ccc(Cl)c(Cl)c2)C3)cc1 [Compound C411a] | 47.4 µM | – | – | – | EC50 ([2]; HepG2.117 cells, intracellular HBV DNA by real-time PCR, 3 days of treatment, mean value; read-out: EC50 (μM, mean value)): 1.02 µM
20 | CNC(=O)c1ccc(-n2c(NC(C)C)nc3c(c2=O)C[C@@H](C)N(C(=O)c2ccc(Cl)c(Cl)c2)C3)c(OC)c1 (single isomer, unassigned) [Compound C314a] | – | – | > 50 µM | – | EC50 ([2]; HepG2.117 cells, 3 days of treatment, intracellular HBV DNA by real-time PCR; mean value; read-out: EC50 (μM, mean value)): 0.1 µM
21 | CNC(=O)c1ccc(-n2c(NC(C)C)nc3c(c2=O)C[C@@H](C)N(C(=O)c2ccc4c(c2)[nH]c(=O)n4C)C3)cc1 [Compound C510] | > 50 µM | 9.42 µM | – | – | –
22 | Cc1noc(C)c1-c1ccc(-n2c(NC(C)C)nc3c(c2=O)C[C@@H](C)N(C(=O)c2ccc(Cl)c(Cl)c2)C3)cn1 [Compound C264, (6R)-7-(3,4-dichlorobenzoyl)-3-[6-(3,5-dimethyl-1,2-oxazol-4-yl)pyridin-3-yl]-6-methyl-2-[(propan-2-yl)amino]-5,6,7,8-tetrahydropyrido[3,4-d]pyrimidin-4(3H)-one] | – | – | > 50 µM | 0.26 µM | –
23 | CNC(=O)c1ccc(-n2c(N[C@@H](C)c3ccc(F)c(OC)c3)nc3c(c2=O)C[C@@H](C)N(C(=O)c2ccc(Cl)c(Cl)c2)C3)cc1 (single isomer, unassigned) [Compound C435b] | 45.8 µM | 1.29 µM | – | – | –
24 | CNC(=O)c1ccc(-n2c(NC(C)c3ccnn3C)nc3c(c2=O)C[C@@H](C)N(C(=O)c2ccc(Cl)c(Cl)c2)C3)cc1 (stereo partly drawn) [Compound C372] | – | – | > 50 µM | 11.7 µM | –
25 | CNC(=O)c1ccc(-n2c(NC(C)c3cccs3)nc3c(c2=O)C[C@@H](C)N(C(=O)c2ccc(Cl)c(Cl)c2)C3)cc1 (stereo partly drawn) [Compound C550] | 30.2 µM | 0.54 µM | – | – | –
26 | COc1ccc(CNc2nc3c(c(=O)n2-c2ccc(S(C)(=O)=O)cc2)C[C@H](C)N(C(=O)c2ccc(Cl)c(Cl)c2)C3)cc1 [Compound C140, (6S)-7-(3,4-dichlorobenzoyl)-3-[4-(methanesulfonyl)phenyl]-2-{[(4-methoxyphenyl)methyl]amino}-6-methyl-5,6,7,8-tetrahydropyrido[3,4-d]pyrimidin-4(3H)-one] | – | – | > 50 µM | 1.88 µM | –
27 | CNC(=O)c1ccc(-n2c(NC(C)(C)C)nc3c(c2=O)C[C@@H](C)N(C(=O)c2ccc(Cl)c(Cl)c2)C3)cc1 [Compound C269, 4-[(6R)-2-(tert-butylamino)-7-(3,4-dichlorobenzoyl)-6-methyl-4-oxo-5,6,7,8-tetrahydropyrido[3,4-d]pyrimidin-3(4H)-yl]-N-methylbenzamide] | – | – | > 50 µM | 0.05 µM | –
28 | CNC(=O)c1ccc(-n2c(NC(C)c3ccc(OC)cc3)nc3c(c2=O)C[C@@H](C)N(C(=O)c2ccc(Cl)c(Cl)c2)C3)cc1 (stereo partly drawn) [Compound C346, 4-[(6R)-7-(3,4-dichlorobenzoyl)-2-{[1-(4-methoxyphenyl)ethyl]amino}-6-methyl-4-oxo-5,6,7,8-tetrahydropyrido[3,4-d]pyrimidin-3(4H)-yl]-N-methylbenzamide] | – | – | 36.3 µM | 0.13 µM | –
29 | CNC(=O)c1ccc(-n2c(N[C@@H](C)c3ccccc3Cl)nc3c(c2=O)C[C@@H](C)N(C(=O)c2ccc(Cl)c(Cl)c2)C3)cc1 [Compound C445] | 24.1 µM | 0.28 µM | – | – | –
30 | CNC(=O)c1ccc(-n2c(NCc3ccc4[nH]ccc4c3)nc3c(c2=O)C[C@@H](C)N(C(=O)c2ccc(Cl)c(Cl)c2)C3)cc1 [Compound C284, 4-[(6R)-7-(3,4-dichlorobenzoyl)-2-{[(1H-indol-5-yl)methyl]amino}-6-methyl-4-oxo-5,6,7,8-tetrahydropyrido[3,4-d]pyrimidin-3(4H)-yl]-N-methylbenzamide] | – | – | > 50 µM | 0.13 µM | –
